Test results as given in patent publication US10858398B2, “Lytic peptide biosensor and methods of making and using the same” (Deetex, LLC, priority 2018, dated 2020).

How the values were obtained:
Type in all cases: cell-based
[1] = test system: E. coli bacterial cells induced to produce β-galactosidase; assay: β-galactosidase release colour change assay (X-gal), induced bacteria in welled plate; conditions: then X-gal 15 minutes at 37° C.
Description: (§1) Non-induced E. coli cells were deposited in wells F1-F3 (control). The cells were treated as follows: Group 1, 10% SDS was added to wells A1-A3, B1-B3, and C1-C3; Group 2, 100 μM LL-37 was added to D1-D3; Group 3, untreated induced bacterial cells in wells E1-E3 (control); Group 4, 100 μM LL-37 added to wells F1-F3. Samples were incubated for 15 minutes post-treatment, and 20 μL of 20 mg/mL X-gal substrate was added to each well and allowed to incubate for 15 minutes at 37° C.
A plate was designed as set forth in FIG. 6a: Group 5, induced bacterial cells treated with 100 uM LL-37 (wells A1-A3, B1-B3, C1-C3); Group 6, induced bacterial cells treated with 10% PBS (wells D1-D3), Group 7, non-induced bacteria treated with a lytic agent (wells E1-E3); Group 8, non-induced bacteria untreated (wells F1-F3); Group 9, induced bacteria treated with a lytic agent (wells G1-G3); and Group 10, untreated induced bacteria.
Samples were incubated for 15 minutes post-treatment, and 20 uL of 20 mg/mL X-gal substrate was added to each well and allowed to incubate for 15 minutes at 37° C.
A plate was designed as set forth in FIG. 7a: Group 11, induced bacteria were treated with 100 uM LL-37 (wells A1-A3, B1-B3, and C1-C3); Group 12, induced bacteria that were untreated (wells D1-D3). […]

[2] = test system: lacZ transfected E. coli; assay: Bacterial Assay: 1:2 dilution series of LL-37 on IPTG-induced lacZ transfected E. coli, X-gal colour change; conditions: 15 minutes room temperature, X-gal 15 minutes 37° C.
Description: E. coli cells transfected with the lacZ gene that encodes the protein β-galactosidase were obtained. The cells were plated to produce isolate colonies that were then selected.
An isolate colony of lacZ transfected E. coli from the plate of Example 2 was looped and inoculated into 10 mL of RPMI 1640 medium+glucose (available from ThermoFisher Scientific, Waltham, Mass.) and incubated at 37° C. for 24 hours.
The liquid bacterial culture from Example 3 was removed from incubation and centrifuged at 1200 RPM for 7 minutes. The supernatant was removed, and the bacterial pellet was resuspended in 1 mL of RPMI 1640 (−glucose) liquid tissue culture medium as Sample A. A 15 mL centrifuge tube was filled with induction media (8.9 mL RPMI 1640 (−glucose), 100 μL induced IPTG. 1 mL of the resuspended bacterial culture from Sample A was added to the new tube as Sample B, for a final volume of 10 mL. Sample B was incubated at 37° C. for 60 minutes.
After incubation, 100 μL of Sample B was transferred to each of wells A1-A12 and B1-B12. 10 μL of a 2000 μM LL-37 stock solution was then added to well A1, and a 1:2 dilution was conducted across wells A2-A11. The dilution was repeated for wells B1-B11. No LL-37 solution was added to wells A12 and B12 (controls). The plate was incubated for 15 minutes at room temperature. […]

[3] = test system: Non-induced E. coli cells; assay: β-galactosidase release colour change assay (X-gal), non-induced control cells; conditions: 100 μM LL-37; non-induced cells (Group 4); 15 minutes, then X-gal 15 minutes at 37° C.
Description: as §1

[4] = test system: induced bacteria, lyophilized; assay: Bacterial Assay IV: lyophilized and rehydrated induced bacteria, X-gal colour change in tubes; conditions: 100 uM LL-37, rehydrated after 72 hours, X-gal 15 minutes at 37° C.
Description: Aliquots of induced bacteria were prepared with 1 mL of the sample dispensed into three Eppendorf tubes. Samples were then lyophilized. After 72 hours to ensure stability, tubes were rehydrated with 1 mL of RPMI 1640 (+) Glucose culture medium and treated. 50 uL of 20 mg/mL X-gal substrate was added to each tube and allowed to incubate for 15 minutes at 37° C.

Compound	colorimetric result (color change pink to blue, release of β-galactosidase) ([1]; 10% SDS, 15 minutes post-treatment)	colorimetric result (color change pink to blue, release of β-galactosidase) ([1]; 100 μM LL-37, 15 minutes post-treatment)	visual color change, higher concentrations of dilution series ([2]; wells A1-A5 and B1-B5, 10 μL of 2000 μM stock in well 1, then 1:2 dilution)	visual color change, lower concentrations of dilution series ([2]; wells A6-A11 and B6-B11 of the 1:2 dilution series)	colorimetric result (color change pink to blue) [3]	tube color change pink to blue (release of β-galactosidase) [4]
CCCCCCCCCCCCOS(=O)(=O)[O-].[Na+] [SDS]	mild color change					
LL-37: anti-microbial alpha-helical 37 amino acid peptide released from human cathelicidin; membrane lytic peptide, human or synthetic		completely converted the well color from pink to blue	appeared blue	remained pink	remained pink	converted the tube color from pink to blue
